{"source": "patent US3968233A", "about": "“α-Amino-γ-butyrolactones as sedatives” (priority 1975, dated 1976)", "key": {"[1]": {"assay": "Protective effect against electroshock (MES)", "details": "phenobarbital Na 40 mg/kg i.p., 10 minutes before electroshock"}, "[2]": {"assay": "Influence on amphetamine-induced hypermobility", "format": "in vivo, mouse", "details": "d-amphetamine sulfate 5 mg/kg i.p. alone", "protocol": "Six groups of 4 mice each were treated with 5 mg/kg d-amphetamine sulfate by intraperitoneal administration. Six groups of 4 animals each received the same dose of d-amphetamine sulfate plus 250 mg/kg of AP-28 intraperitoneally 15 minutes after d-amphetamine sulfate; six more groups of four animals each received saline solution and served as control animals. […] The number of times each animal crossed the light beam throughout the 10-minute test was noted."}, "[3]": {"format": "in vivo, mouse", "details": "control experiments; 95-percent confidence limits", "protocol": "This type of antagonism was evaluated in the mouse in three ways, namely: (1) protection from death from one hypodermic injection of strychnine: (2) evaluation of the LD50 of strychnine in mice both treated and untreated with AP-28, and (3) influence on the time required to cause animals to die by slow intravenous perfusion of strychnine. […] Groups of six mice were used. (2) increasing amounts of strychnine sulfate were injected hypodermically. In two experiments 200 or 400 mg/kg of intraperitoneal AP-28 were given 30 minutes prior to strychnine injection and the LD50 was calculated. The following results were obtained (95-percent confidence limits): […]"}, "[4]": {"assay": "Enhancement of the hypnotic effect of sodium pentobarbital", "format": "in vivo, mouse", "details": "sodium pentobarbital 40 mg/kg i.p. alone", "protocol": "Forty mg/kg of sodium pentobarbital was injected intraperitoneally into mice and note was taken of animals losing the righting reflex and for how long. Other mice received a preliminary treatment with AP-28 at a dosage of 250 and 500 mg/kg, intraperitoneally, and thereafter sodium pentobarbital was given to them."}}, "note": "Counter-ions that a name gives are not always drawn.", "data": [{"smiles": "CCC1(c2ccccc2)C(=O)NC(=O)NC1=O", "note": "[Phenobarbital Na, Phenobarbital sodium, reference compound]", "values": [{"measurement": "Number animals died", "setting": "[1]", "value": "0/8"}, {"measurement": "Number animals with clonic convulsions", "setting": "[1]; in parentheses number treated", "value": "8(8)"}, {"measurement": "Number animals with tonic convulsions", "setting": "[1]; in parentheses number treated", "value": "0(8)"}]}, {"smiles": "C[C@H](N)Cc1ccccc1", "note": "[d-amphetamine, d-amphetamine sulfate, reference compound]", "values": [{"measurement": "Mean number of crossings (± SE) in 10 minutes", "setting": "[2]", "value": "657 ± 59"}]}, {"smiles": "O=C1C[C@@H]2OCC=C3CN4CC[C@]56c7ccccc7N1[C@H]5[C@H]2[C@H]3C[C@H]46", "note": "[Strychnine, strychnine sulfate]", "values": [{"measurement": "LD50 of strychnine", "setting": "[3]", "value": "0.83 (1.02-0.67) mg/kg"}]}, {"smiles": "CCCC(C)C1(CC)C(=O)NC(=O)NC1=O", "note": "(stereo not shown) [sodium pentobarbital, reference compound]", "values": [{"measurement": "Animals under hypnosis/treated", "setting": "[4]", "value": "3/4"}, {"measurement": "Duration of hypnosis in minutes (m ± SE)", "setting": "[4]; zero assigned to animals not losing righting reflex", "value": "3.25 ± 3.4", "unit": "min"}]}]}
